Reference: the kinase profiling compilation of Christmann-Franck et al. (2016)

Experiments:
Assay in all cases: KINOMEscan competition binding
Conditions in all cases: compound 10.0 µM
[1] = target: JAK2 JH1 catalytic (human) (UniProt O60674)
[2] = target: TYK2 JH1 catalytic (human) (UniProt P29597)
ACVR2B (human) = ACVR2B (human) (UniProt Q13705)
NEK4 (human) = NEK4 (human) (UniProt P51957)
ERBB4 (human) = ERBB4 (human) (UniProt Q15303)
PIK3CD (human) = PIK3CD (human) (UniProt O00329)
FGFR3 (human) = FGFR3 (human) (UniProt P22607)
SYK (human) = SYK (human) (UniProt P43405)
CDK4 CCND3 (human) = CDK4 CCND3 (human) (UniProt P11802+P30281)
TEK (human) = TEK (human) (UniProt Q02763)
MELK (human) = MELK (human) (UniProt Q14680)
[3] = test system: PIK3CA (human), P42336 [E545A]
PKN1 (human) = PKN1 (human) (UniProt Q16512)
CHEK2 (human) = CHEK2 (human) (UniProt O96017)
MAPKAPK2 (human) = MAPKAPK2 (human) (UniProt P49137)
PRKX (human) = PRKX (human) (UniProt P51817)
EPHA4 (human) = EPHA4 (human) (UniProt P54764)
AURKB (human) = AURKB (human) (UniProt Q96GD4)
DAPK1 (human) = DAPK1 (human) (UniProt P53355)
PKN3 (M.tuberculosis) = PKN3 (M.tuberculosis) (UniProt Q6P5Z2)
PRKCH (human) = PRKCH (human) (UniProt P24723)
MKNK2 (human) = MKNK2 (human) (UniProt Q9HBH9)
Chain of MKNK2 (human) (Q9HBH9 whole entry, looked up): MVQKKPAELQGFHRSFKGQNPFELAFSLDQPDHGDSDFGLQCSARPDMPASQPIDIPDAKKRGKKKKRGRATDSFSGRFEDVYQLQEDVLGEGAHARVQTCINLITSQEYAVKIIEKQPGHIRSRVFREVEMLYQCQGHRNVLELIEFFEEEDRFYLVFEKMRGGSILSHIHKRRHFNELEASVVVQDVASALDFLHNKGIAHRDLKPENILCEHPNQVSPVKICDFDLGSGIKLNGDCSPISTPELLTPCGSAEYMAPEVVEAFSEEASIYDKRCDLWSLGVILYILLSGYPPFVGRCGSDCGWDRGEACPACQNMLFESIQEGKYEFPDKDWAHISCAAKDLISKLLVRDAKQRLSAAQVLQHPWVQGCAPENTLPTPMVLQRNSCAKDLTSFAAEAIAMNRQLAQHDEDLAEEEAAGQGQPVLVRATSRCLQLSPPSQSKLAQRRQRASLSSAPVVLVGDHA

LCK (human) = LCK (human) (UniProt P06239)
MAPK6 (human) = MAPK6 (human) (UniProt Q16659)
CDK9 (human) = CDK9 (human) (UniProt P50750)
Chain of CDK9 (human) (P50750 whole entry, looked up): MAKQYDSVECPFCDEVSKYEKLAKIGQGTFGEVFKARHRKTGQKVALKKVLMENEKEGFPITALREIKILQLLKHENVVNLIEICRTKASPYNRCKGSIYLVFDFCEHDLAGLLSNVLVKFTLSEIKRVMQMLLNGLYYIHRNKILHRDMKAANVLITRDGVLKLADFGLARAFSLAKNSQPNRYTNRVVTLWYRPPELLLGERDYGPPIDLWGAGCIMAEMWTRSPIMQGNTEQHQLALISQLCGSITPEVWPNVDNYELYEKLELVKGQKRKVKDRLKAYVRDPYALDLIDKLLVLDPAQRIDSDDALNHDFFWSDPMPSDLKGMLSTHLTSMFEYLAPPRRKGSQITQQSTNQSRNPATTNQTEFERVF

PIM3 (human) = PIM3 (human) (UniProt Q86V86)
CAMK1D (human) = CAMK1D (human) (UniProt Q8IU85)
Chain of CAMK1D (human) (Q8IU85 whole entry, looked up): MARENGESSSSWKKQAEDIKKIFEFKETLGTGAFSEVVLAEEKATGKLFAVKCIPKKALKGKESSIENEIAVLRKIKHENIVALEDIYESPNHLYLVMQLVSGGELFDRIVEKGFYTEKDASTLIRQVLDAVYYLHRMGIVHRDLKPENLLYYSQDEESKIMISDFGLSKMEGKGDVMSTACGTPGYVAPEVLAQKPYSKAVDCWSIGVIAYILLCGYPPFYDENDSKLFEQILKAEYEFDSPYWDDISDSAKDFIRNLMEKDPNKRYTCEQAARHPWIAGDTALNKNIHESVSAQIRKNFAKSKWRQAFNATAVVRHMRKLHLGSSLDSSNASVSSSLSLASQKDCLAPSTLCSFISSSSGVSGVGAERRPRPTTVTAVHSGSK

FLT4 (human) = FLT4 (human) (UniProt P35916)
PAK7 (human) = PAK7 (human) (UniProt Q9P286)
RPS6KA1 KD2 (human) = RPS6KA1 KD2 (human) (UniProt Q15418)
Chain of RPS6KA1 KD2 (human) (Q15418 whole entry, looked up): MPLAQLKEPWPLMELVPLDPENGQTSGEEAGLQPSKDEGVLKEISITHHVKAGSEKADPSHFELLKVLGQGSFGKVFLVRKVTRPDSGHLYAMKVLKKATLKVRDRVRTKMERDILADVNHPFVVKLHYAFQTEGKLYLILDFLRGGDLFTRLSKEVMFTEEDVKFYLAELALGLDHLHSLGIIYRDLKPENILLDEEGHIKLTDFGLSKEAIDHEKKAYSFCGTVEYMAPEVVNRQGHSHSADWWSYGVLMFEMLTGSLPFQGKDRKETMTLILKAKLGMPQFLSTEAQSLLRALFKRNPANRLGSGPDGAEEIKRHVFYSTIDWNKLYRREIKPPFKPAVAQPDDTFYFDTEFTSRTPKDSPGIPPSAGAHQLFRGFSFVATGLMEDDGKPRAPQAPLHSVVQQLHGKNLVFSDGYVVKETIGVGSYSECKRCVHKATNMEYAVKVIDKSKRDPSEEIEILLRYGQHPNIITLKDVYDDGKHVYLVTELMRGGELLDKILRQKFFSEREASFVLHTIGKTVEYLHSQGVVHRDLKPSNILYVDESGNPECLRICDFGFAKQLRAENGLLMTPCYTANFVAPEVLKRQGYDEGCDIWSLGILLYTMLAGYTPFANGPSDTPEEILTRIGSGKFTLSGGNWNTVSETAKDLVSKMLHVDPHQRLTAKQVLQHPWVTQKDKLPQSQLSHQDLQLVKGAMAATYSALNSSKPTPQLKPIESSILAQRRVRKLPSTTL

MAK (human) = MAK (human) (UniProt P20794)
STK32B (human) = STK32B (human) (UniProt Q9NY57)
MAP4K4 (human) = MAP4K4 (human) (UniProt O95819)
Chain of MAP4K4 (human) (O95819 whole entry, looked up): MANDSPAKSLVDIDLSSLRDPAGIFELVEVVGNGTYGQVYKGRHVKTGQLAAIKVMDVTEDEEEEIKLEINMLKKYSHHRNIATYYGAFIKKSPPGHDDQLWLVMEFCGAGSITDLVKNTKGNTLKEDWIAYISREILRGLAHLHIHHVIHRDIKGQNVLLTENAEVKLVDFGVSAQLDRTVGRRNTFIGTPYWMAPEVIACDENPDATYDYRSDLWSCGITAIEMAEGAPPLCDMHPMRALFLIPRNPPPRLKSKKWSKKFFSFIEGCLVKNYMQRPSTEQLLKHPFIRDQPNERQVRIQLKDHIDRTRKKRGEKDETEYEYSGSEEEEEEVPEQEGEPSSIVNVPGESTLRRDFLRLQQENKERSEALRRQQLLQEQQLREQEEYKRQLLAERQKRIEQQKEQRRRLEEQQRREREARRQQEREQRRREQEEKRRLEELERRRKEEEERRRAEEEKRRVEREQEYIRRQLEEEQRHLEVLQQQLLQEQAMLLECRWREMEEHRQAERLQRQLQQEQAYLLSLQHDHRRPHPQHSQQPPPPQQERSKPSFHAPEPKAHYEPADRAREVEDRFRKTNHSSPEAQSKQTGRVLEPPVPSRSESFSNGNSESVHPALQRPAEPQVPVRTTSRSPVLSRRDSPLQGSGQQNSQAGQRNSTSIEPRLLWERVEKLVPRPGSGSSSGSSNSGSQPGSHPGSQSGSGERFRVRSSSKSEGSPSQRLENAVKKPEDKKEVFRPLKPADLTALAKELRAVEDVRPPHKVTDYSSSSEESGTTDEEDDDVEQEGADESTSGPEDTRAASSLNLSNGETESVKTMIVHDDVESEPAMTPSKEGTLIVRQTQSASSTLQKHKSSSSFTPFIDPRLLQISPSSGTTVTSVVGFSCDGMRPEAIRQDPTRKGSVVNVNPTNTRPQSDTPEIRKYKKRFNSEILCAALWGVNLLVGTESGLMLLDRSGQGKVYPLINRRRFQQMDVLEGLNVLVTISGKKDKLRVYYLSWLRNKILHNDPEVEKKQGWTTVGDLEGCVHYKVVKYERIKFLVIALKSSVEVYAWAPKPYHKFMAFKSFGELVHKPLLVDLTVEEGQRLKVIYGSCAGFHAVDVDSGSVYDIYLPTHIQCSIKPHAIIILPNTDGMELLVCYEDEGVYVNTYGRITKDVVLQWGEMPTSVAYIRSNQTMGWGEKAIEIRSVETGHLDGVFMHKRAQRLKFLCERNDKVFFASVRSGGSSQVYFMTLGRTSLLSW

WEE2 (human) = WEE2 (human) (UniProt P0C1S8)
ULK2 (human) = ULK2 (human) (UniProt Q8IYT8)
NLK (human) = NLK (human) (UniProt Q9UBE8)
Chain of NLK (human) (Q9UBE8 whole entry, looked up): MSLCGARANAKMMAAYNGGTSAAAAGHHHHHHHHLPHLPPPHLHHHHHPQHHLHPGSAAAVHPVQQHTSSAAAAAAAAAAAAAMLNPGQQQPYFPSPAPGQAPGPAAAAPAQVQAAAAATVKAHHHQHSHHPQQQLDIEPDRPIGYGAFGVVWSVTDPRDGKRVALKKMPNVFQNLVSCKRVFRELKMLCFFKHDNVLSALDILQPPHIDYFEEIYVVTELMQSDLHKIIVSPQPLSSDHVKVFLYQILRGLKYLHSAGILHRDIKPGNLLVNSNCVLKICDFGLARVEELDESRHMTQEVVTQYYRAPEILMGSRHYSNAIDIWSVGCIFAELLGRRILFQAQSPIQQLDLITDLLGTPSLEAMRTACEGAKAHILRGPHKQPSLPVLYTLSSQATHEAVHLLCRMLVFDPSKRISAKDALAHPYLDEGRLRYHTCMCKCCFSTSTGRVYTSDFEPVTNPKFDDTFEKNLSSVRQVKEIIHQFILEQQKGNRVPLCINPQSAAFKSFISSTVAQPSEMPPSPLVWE

STK17B (human) = STK17B (human) (UniProt O94768)
MYLK2 (human) = MYLK2 (human) (UniProt Q9H1R3)
Chain of MYLK2 (human) (Q9H1R3 whole entry, looked up): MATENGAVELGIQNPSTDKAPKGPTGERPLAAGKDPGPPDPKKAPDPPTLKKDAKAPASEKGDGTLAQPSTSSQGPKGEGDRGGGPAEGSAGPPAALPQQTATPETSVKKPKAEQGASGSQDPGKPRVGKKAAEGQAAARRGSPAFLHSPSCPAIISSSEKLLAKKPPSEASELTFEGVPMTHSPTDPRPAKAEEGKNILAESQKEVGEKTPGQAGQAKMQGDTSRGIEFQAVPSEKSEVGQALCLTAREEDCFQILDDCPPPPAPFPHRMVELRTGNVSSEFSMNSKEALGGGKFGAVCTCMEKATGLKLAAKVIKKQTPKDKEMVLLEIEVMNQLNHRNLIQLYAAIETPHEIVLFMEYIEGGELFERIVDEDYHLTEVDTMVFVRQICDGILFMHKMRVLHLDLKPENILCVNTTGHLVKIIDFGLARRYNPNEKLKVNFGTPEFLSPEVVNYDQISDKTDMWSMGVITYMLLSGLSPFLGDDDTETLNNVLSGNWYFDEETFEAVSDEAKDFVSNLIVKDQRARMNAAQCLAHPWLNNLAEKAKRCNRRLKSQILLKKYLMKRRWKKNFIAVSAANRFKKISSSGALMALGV

MARK1 (human) = MARK1 (human) (UniProt Q9P0L2)
RIOK1 (human) = RIOK1 (human) (UniProt Q9BRS2)
GRK7 (human) = GRK7 (human) (UniProt Q8WTQ7)

Chain of ACVR2B (human) (Q13705 whole entry, looked up): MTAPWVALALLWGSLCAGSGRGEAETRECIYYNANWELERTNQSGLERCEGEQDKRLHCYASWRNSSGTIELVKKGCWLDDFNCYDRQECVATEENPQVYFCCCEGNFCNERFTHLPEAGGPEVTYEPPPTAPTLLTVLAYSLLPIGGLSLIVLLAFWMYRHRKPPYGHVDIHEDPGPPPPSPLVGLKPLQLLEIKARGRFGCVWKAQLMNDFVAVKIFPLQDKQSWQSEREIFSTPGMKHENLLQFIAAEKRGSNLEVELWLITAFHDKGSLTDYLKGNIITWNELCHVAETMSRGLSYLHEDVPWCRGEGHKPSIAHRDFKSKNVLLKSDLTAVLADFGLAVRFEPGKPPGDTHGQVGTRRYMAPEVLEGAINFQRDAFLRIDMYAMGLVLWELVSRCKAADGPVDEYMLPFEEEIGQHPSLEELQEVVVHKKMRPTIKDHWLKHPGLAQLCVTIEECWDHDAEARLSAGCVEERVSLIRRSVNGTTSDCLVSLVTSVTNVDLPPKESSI

## COc1ccc(-c2ccc3c(N4CCOCC4)nc(N4C[C@@H](C)O[C@@H](C)C4)nc3n2)cc1CO
[1]
  kinase still bound, per cent of control: 71%
[2]
  kinase still bound, per cent of control: 100%
ACVR2B (human)
  kinase still bound, per cent of control: 100%
NEK4 (human)
  kinase still bound, per cent of control: 76%
ERBB4 (human)
  kinase still bound, per cent of control: 89%
PIK3CD (human)
  kinase still bound, per cent of control: 0.95%
FGFR3 (human)
  kinase still bound, per cent of control: 100%
SYK (human)
  kinase still bound, per cent of control: 100%
CDK4 CCND3 (human)
  per cent of control: 80%
TEK (human)
  kinase still bound, per cent of control: 71%
MELK (human)
  kinase still bound, per cent of control: 97%
[3]
  kinase still bound, per cent of control: 2.4%
PKN1 (human)
  kinase still bound, per cent of control: 94%
CHEK2 (human)
  kinase still bound, per cent of control: 100%
MAPKAPK2 (human)
  kinase still bound, per cent of control: 92%
PRKX (human)
  kinase still bound, per cent of control: 100%
EPHA4 (human)
  kinase still bound, per cent of control: 100%
AURKB (human)
  kinase still bound, per cent of control: 73%
DAPK1 (human)
  kinase still bound, per cent of control: 95%
PKN3 (M.tuberculosis)
  kinase still bound, per cent of control: 100%
PRKCH (human)
  kinase still bound, per cent of control: 100%
MKNK2 (human)
  kinase still bound, per cent of control: 75%
LCK (human)
  kinase still bound, per cent of control: 98%
MAPK6 (human)
  kinase still bound, per cent of control: 84%
CDK9 (human)
  per cent of control: 98%
PIM3 (human)
  kinase still bound, per cent of control: 100%
CAMK1D (human)
  kinase still bound, per cent of control: 89%
FLT4 (human)
  kinase still bound, per cent of control: 100%
PAK7 (human)
  kinase still bound, per cent of control: 76%
RPS6KA1 KD2 (human)
  kinase still bound, per cent of control: 100%
MAK (human)
  kinase still bound, per cent of control: 100%
STK32B (human)
  kinase still bound, per cent of control: 100%
MAP4K4 (human)
  kinase still bound, per cent of control: 88%
WEE2 (human)
  kinase still bound, per cent of control: 100%
ULK2 (human)
  kinase still bound, per cent of control: 100%
NLK (human)
  kinase still bound, per cent of control: 96%
STK17B (human)
  kinase still bound, per cent of control: 100%
MYLK2 (human)
  kinase still bound, per cent of control: 78%
MARK1 (human)
  kinase still bound, per cent of control: 100%
RIOK1 (human)
  kinase still bound, per cent of control: 51%
GRK7 (human)
  kinase still bound, per cent of control: 100%
